Consider one compound from patent publication US11427543B2, “Compounds for targeting cancer stem cells” (The General Hospital Corporation, priority 2016, dated 2022).

The test system of one assay is IL-6. The assay is described as follows: IL-6 concentration by ELISA after compound treatment. The class given is cell-based. As to conditions: 4T1 and E0771 breast cancer cell lines, 1 μM, 24 hours. On the procedure: After treatment, IL-6 concentration was decreased by about 5 to 7 fold.
4T1 and E0771 cells were grow in 96 well plate and were treated with compound for 24 hours (concentration of compound was 1 μM). Commercial ELISA kit (R&D systems) was used for measuring of IL-6 concentration. […] After treatment, IL-6 concentration was decreased by about 5 to 7 fold.
(In general: An ELISA detects its analyte on a solid surface through an enzyme-linked reagent.)

Another assay has as its system PD-L1. Kind of assay: PD-L1 protein level by Western blot in cells under compressive (solid) stress. As to conditions: breast cancer (4T1) and glioblastoma cells (CT2A, GL261), solid stress 0.80 kPa, 1 μM, 24 hours. It is filed as cell-based. On the procedure:
Cells were treated with 1 μM C108 for 24 hours and untreated cells were used as a control. β-actin was used as a loading control.
To generate compressive stress, a device was used that included a piston of adjustable weights applying a constant force to cells growing on a transwell membrane with 0.8 μm-pores. This membrane permitted nutrient and oxygen diffusion but prevented cell transmigration. The connection between compressive stress and G3BP2 and PD-L1 protein levels was measured in 4T1 cells. When 80% cell confluence was reached on the membrane, the cells were compressed for 24 h using the in vitro compression device; a similar membrane containing 80% cell confluence in an uncompressed condition was used as the control. After 24-h compression, proteins were isolated from the control and compressed cells cultured in full-growth medium according to the standard protocol (see e.g., Roose et al. Microvasc Res, 2003, 66(3):204-12). […] To confirm this finding, Western blot analysis was performed with different breast cancer cells (MDA-MB-231 cells) with different of compressive stress, as shown in FIG. 15B).
It was then hypothesized that compounds that bind to G3BP2 protein can repress PD-L1 in stressed cells. Breast cancer cells and glioblastoma cells in vitro were analyzed with 2-hydroxy-N′-[1-(2-hydroxyphenyl)ethylidene]benzohydrazide (i.e., C108) for 24 hours.

The next assay deals with ZEB1. Kind of assay: ZEB1 protein level by Western blot after compound treatment. The note with it: MDA-MB-453 and BT-474 breast cancer cell lines, 3 μM, 24 hours. It is filed as cell-based. On the procedure: Immunoprecipitation was performed using Protein A Sepharose beads (GE Healthcare Lifesciences). Beads were washed, conjugated to the immunoprecipitating antibody for 2 hours, and immunoprecipitated overnight at 4° C. Western blots were performed using a standard protocol; using 4-10% gradient gel and Tris-glycine transfer buffer.
A direct molecular link between epithelial-mesenchymal transition (EMT) and CSC plasticity in breast cancer has recently been shown; EMT effectors such as ZEB1 can co-induce both EMT and stem-like properties (see e.g., Chaffer et al., Cell, 2013, 154, 61-74). To understand if the G3BP2-mediated CSC state intersects with the EMT program, we the protein level of ZEB1 in G3BP2 knockdown and overexpression breast cancer cell lines was analyzed.
Background: A western blot detects proteins with antibodies after separation by electrophoresis.

Another assay addresses T1, G3BP2 (Homo sapiens, UniProt Q9UN86).
T1 construct: protein lysates from three breast cancer cell lines incubated overnight with; endogenous in cells
T1 sequence (Q9UN86 1-482): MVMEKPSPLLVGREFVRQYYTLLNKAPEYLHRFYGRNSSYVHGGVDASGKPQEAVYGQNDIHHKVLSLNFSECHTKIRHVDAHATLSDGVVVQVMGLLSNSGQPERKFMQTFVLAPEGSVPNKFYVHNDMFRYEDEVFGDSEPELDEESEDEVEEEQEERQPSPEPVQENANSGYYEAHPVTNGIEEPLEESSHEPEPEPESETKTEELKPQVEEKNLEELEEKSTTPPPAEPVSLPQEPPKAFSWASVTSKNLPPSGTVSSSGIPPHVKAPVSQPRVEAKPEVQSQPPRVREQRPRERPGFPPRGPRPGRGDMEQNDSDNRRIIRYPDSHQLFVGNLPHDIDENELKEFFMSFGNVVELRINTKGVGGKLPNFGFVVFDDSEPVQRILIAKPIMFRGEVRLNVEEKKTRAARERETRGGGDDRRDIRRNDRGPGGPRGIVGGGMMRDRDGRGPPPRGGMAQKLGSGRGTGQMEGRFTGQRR
The assay is described as follows: Pull-down with compound-conjugated TURBOBEADS nanoparticles, Western blot with G3BP2 antibodies. The class given is binding. The note with it: nanoparticles bound to compound vs nanoparticles alone (control). On the procedure: Western blot analysis was performed with G3BP2 antibodies. Small molecule 2-hydroxy-N′-[1-(2-hydroxyphenyl)ethylidene]benzohydrazide was conjugated to TURBOBEADS® carboxy nanoparticles (TURBOBEADS®). TURBOBEADS® alone were used as a negative control.
To determine which […] would bind to a test compound, TURBOBEADS® carboxy nanoparticles (TURBOBEADS®) were conjugated to 2-hydroxy-N′-[1-(2-hydroxyphenyl)ethylidene]benzohydrazide for 20 mi as per manufacturer's protocol, followed by overnight immunoprecipitation at 4° C. Proteins from metastatic cancer cells were pulled-down with using the test compound-nanoparticle conjugates and using unconjugated nanoparticles as a control.
shRNA-expressing lentivirus was obtained for each pull-down protein and used to infect modified MDA-MB-231 cells. MTT assays were performed with shRNA stable cell lines and treated with non-lethal doses of paclitaxel. Only shRNA […] made cells sensitive to treatment with paclitaxel. To confirm that the test compound (2-hydroxy-N′-[1-(2-hydroxyphenyl)ethylidene]benzohydrazide) bound to G3B3P2, an immunoprecipitation with magnetic nanoparticles bound to 2-hydroxy-N′-[1-(2-hydroxyphenyl)ethylidene]benzohydrazide and nanoparticles alone (control) was carried out.

Entries after “also recorded” stand apart in the source; their conditions may differ.

`CC(=NNC(=O)c1ccccc1O)c1ccccc1O` [C108, 2-hydroxy-N′-[1-(2-hydroxyphenyl)ethylidene]benzohydrazide]: the “Decrease in IL-6 concentration” value in the assay on IL-6 was in the range of 5 to 7 fold. Besides, in the assay with PD-L1, the PD-L1 expression level result is “repressed; also recorded: diminished”. Also, in the assay with ZEB1, the ZEB1 inhibition is reported as 5-7 fold. Further, at G3BP2, the “Binding of G3BP2 to the compound (Western blotting after immunoprecipitation with magnetic nanoparticles)” value is listed as “binds”.
